Data on 10 compounds can be found in PubChem BioAssay (NCI).

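Step 1: Grow cells in 96-well plates. Step 2: Expose to compound for 48 hours at 5 concentrations. Step 3: Interpolate endpoints linearly; if unreached, use highest concentration. GI50 is the concentration that inhibits growth by half. TGI: concentration producing complete growth inhibition.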

Assay in all cases: NCI anticancer screen, dose series, 48 h
For assay [1], the system named is KM12 colon.
In assay [2] the test system is MCF7 breast.
Assay [3] has as its system SK-MEL-2 melanoma.
Assay [4] deals with DU-145 prostate.
Assay [5] has as its system SF-539 CNS.
In assay [6] the test system is NCI-H522 lung.
Assay [7] concerns OVCAR-4 ovarian.
In assay [8] the test system is SF-268 CNS.
The test system of assay [9] is SNB-19 CNS.
In assay [10] the test system is HCT-116 colon.
For assay [11], the system named is MALME-3M melanoma.
Assay [12] has as its system HS 578T breast.
The test system of assay [13] is SR leukemia.
The test system of assay [14] is BT-549 breast.

Turning to `COc1ccc(CCNCCCC2c3ccccc3-c3ccccc32)cc1OC`, the TGI in [1] came out at 30.4 µM; in assay [2], 20.3 µM; in assay [3] it was 17.9 µM; in assay [4] it was 28.9 µM; in [5], 30.8 µM; in assay [6], 30.1 µM. In addition, the TGI stood at 30.5 µM in assay [7]; 30.3 µM in assay [8]; 31.8 µM in assay [9]; 25.8 µM in assay [10]; 27 µM in [11]; 39.8 µM in assay [12]. Further, the TGI in assay [13] is 24.2 µM; in assay [14], 35.6 µM.

Regarding `N#Cc1sc2c(c1O)c(=O)n(-c1ccccc1)c(=S)n2-c1ccccc1`, the TGI in assay [1], in assay [2], in assay [3], in assay [4], in [6] and in [7] was greater than 100 µM in each case. Also, the TGI in [8], in [9], in assay [11], in assay [12], in assay [13] and in [14] was greater than 100 µM throughout.

With `S=c1[nH]nc(NNc2ccccc2)n1Nc1ccccc1`, the TGI was greater than 100 µM in [1]; greater than 100 µM in [2]; greater than 100 µM in assay [3]; greater than 100 µM in [4]; greater than 73.6 µM in assay [5]; greater than 100 µM in [6]. Further, the TGI in assay [7], in [8], in [9], in [10], in [11] and in assay [12] was greater than 100 µM each time. The TGI in assay [13] is greater than 91.1 µM; in [14], greater than 100 µM.

As to `Nc1nc(N)c2nc(CNc3ccc(C(=O)NC(CCCCNC(=O)c4ccccc4C(=O)O)C(=O)O)cc3)cnc2n1` (centres undefined), the GI50 in assay [1] is 0.00485 µM; in assay [2] it was 0.00496 µM; in assay [5] it was 0.026 µM; in assay [8] it was 0.00841 µM; in assay [10], 0.000622 µM. Moreover, the TGI in [1], in assay [2], in assay [3], in assay [4], in assay [6] and in assay [7] was greater than 100 µM throughout. For the same compound, the TGI in assay [8], in assay [9], in assay [10], in assay [11], in assay [12] and in [13] was greater than 100 µM throughout. In addition, the TGI in assay [14] is greater than 100 µM.

With `CC(=O)c1sc(=N)n(-c2c(C)cccc2C)c1C`, the TGI in assay [1], in assay [2], in assay [3], in assay [4], in [5] and in assay [6] was greater than 100 µM each time. The TGI in assay [7], in [8], in assay [9], in assay [11], in assay [12] and in assay [13] was greater than 100 µM throughout. The TGI in assay [14] was greater than 100 µM.

As to `N#CCCN(CCN(CCC#N)C(=O)Nc1ccccc1)C(=O)Nc1ccccc1`, the TGI in assay [2] is greater than 100 µM; in assay [3], greater than 100 µM; in assay [4] it was greater than 100 µM; in assay [6], 98.4 µM; in [8], 87.9 µM; in assay [9], greater than 100 µM. The TGI in [10], in assay [11], in assay [12], in [13] and in assay [14] was greater than 100 µM each time.

On to `COc1ccc(CCNC(=O)[C@H]2CCCC[C@@H]2CCO)cc1OC`, for which the TGI in [1], in assay [2], in assay [3], in assay [4], in [5] and in [6] was greater than 100 µM throughout. For the same compound, the TGI in [7], in [8], in assay [9], in assay [10], in assay [12] and in assay [13] was greater than 100 µM throughout. Further, the TGI in assay [14] was greater than 100 µM.

As to `O=C(/C=C(\O)c1ccccc1)c1cc(-c2ccccc2)n(-c2ccccc2)n1`, the TGI in [1] was greater than 100 µM; in assay [2], greater than 100 µM; in assay [3], greater than 100 µM; in assay [4], greater than 100 µM; in assay [5], 72.3 µM; in assay [6] it was 42.4 µM. Besides, the TGI in [8] is greater than 100 µM; in [9], greater than 100 µM; in assay [10] it was greater than 100 µM; in assay [11], 45.5 µM; in assay [12], greater than 100 µM; in assay [13], 5.2 µM. The same compound showed a TGI in [14] of 26.1 µM.

Take `CC1OC(OC2C(Oc3cc(O)c4c(c3)O[C@H](c3ccc(O)cc3)CC4=O)OC(CO)C(O)C2O)C(O)C(O)C1O` (some centres undefined): the TGI in [1], in assay [2], in assay [3], in [4], in [5] and in assay [6] was greater than 100 µM each time. The TGI in assay [7], in assay [8], in assay [10], in assay [11], in [12] and in assay [13] was greater than 100 µM throughout. Besides, the TGI in [14] is greater than 100 µM.

As to `COc1ccc(NC2CC(C)N(C(=O)c3ccccc3)O2)cc1` (centres undefined), the TGI in [2], in [3], in assay [4], in assay [5], in [6] and in assay [7] was greater than 10 µM each time. For the same compound, the TGI in [8], in [9], in [10], in [11], in [12] and in assay [13] was greater than 10 µM each time. In assay [14], this compound displayed a TGI greater than 10 µM.
